Experimental data taken from patent US20030073683A1, “Administration of noncompetitive AMPA receptor antagonist for neuroprotection after traumatic brain injury” (priority 2001, published 2003).
Like-named read-outs stand apart in the source and are kept apart here.

Experiments:
[1] = tested on: fluid-percussion brain injury; test: Fluid-percussion brain injury in rats: normal pyramidal neuron counts in hippocampus; format: in vivo, rat
From the text: (§1) Rat Model. Fasted male Sprague-Dawley rats, weighing 290-390 g were employed. The animals were initially anesthetized with 3% halothane, 70% nitrous oxide, and a balance of oxygen. Rats were positioned in a stereotaxic frame following endotracheal intubation. A 4.8-mm craniotomy was made overlying the right parietal cortex (3.8 mm posterior to bregma and 2.5 mm lateral to midline) as previously described by Belayev et al., J. Neurotrauma, 16: 445-453 (1999) and Dietrich et al., J. Neuropathol. (Beri.) 87: 250-258 (1994). Next, a plastic injury tube was positioned over the exposed dura matter. Dental acrylic was then used to bond the injury tube to surrounding structures. After the acrylic had hardened, the injury tube was plugged with a Gelfoam sponge, the scalp closed with sutures, and the animal was returned to its cage and allowed to recover overnight.
(§2) Fluid-Percussion Brain Injury. The following day, the rats were reanesthetized with halothane, orotracheally intubated, and maintained on 70% nitrous oxide, 1.5% halothane, and a balance of oxygen. Temperature probes were inserted into the rectum (CMA/150 Temperature Controller, CMA/Microdialysis AB, Stockholm, Sweden) and the left temporalis muscle (Thermocouple Probe, Omega Engineering, Stanford, Conn.), and separate heating lamps were used to maintain rectal temperature and temporalis muscle temperature at 37.0-37.5° C. The right femoral artery and vein were catheterized for continuous blood pressure monitoring and periodic blood sampling for arterial gases, pH, hematocrit, and plasma glucose (measurements taken 15 min before TBI and 15 min after TBI). Rectal temperature and body weight was monitored before trauma and periodically for 7 days after trauma. Mean arterial blood pressure (MABP) was measured via an indwelling femoral arterial catheter connected to a precalibrated Statham pressure transducer (model P23XL, Viggo-Spectramed Inc., Oxnard, Calif., USA) and was recorded continuously (model RS3400 polygraph, Gould, Inc., Valley View, Ohio, USA). Serial measurements were made of arterial blood gases and pH (model ABL 330, Radiometer America, Inc. Westlake, Ohio, USA) and plasma glucose (model 2300 Stnt; Yellow Springs Instrument Co., Inc., Yellow Springs, Ohio, USA).
(§3) A fluid-percussion device was connected to the injury tube of the rat's skull. This device consisted of a saline-filled cylindrical Plexiglas reservoir having a rubber-coated piston at one end, a transducer housing to permit measurement of pressure transients, and a connecting device adapted to the rat's skull. Injury was induced by the descent of a pendulum, conveying a pressure transient of 1.5-2.0 atm. to the right dorsolateral parietal cortex (see Dietrich et al., J. Neuropathol. (Beri.), 87: 250-258 (1994)). Sham-operated animals (n=9) underwent similar surgical procedures but were not injured.
(§4) Drug-Infusion System. The femoral-vein cannula was tunneled subcutaneously so as to exit from the dorsal neck and was connected to a swivel device (Stoelting Co., Wood Dale, Ill., USA) attached to the roof of a spacious cage. This device allowed bi-directional rotation. PE-50 tubing extending from the other end of the device was joined to a disposable syringe attached to an infusion pump (KDS-100, KD Scientific, Boston, Mass., USA). This tethering system allowed the rats free movement without interfering with the patency of the cannula during drug administration.
(§5) Drug Administration. Talampanel (Lilly Research Laboratories, Indianapolis, Ind., USA; bolus infusion of 4 mg/kg followed by infusion of 4 mg/kg/h over 72 hr) or vehicle (40% 2-hydroxylpropyl-β-cyclodextrin solution, 0.3-ml bolus plus 0.3 ml/kg/hr over 72 hr) was administered I.V. beginning 30 min or 3 hr after trauma or sham operation.
Histopathology of Hippocampus. […]

kindled seizures = settings: cited from earlier work
[2] = tested on: phenytoin-resistant status epilepticus; settings: in vivo; cited from earlier work
Sprague-Dawley rats = settings: rat, in vivo
From the text: Fluid-Percussion Brain Injury. The following day, the rats were reanesthetized with halothane, orotracheally intubated, and maintained on 70% nitrous oxide, 1.5% halothane, and a balance of oxygen. Temperature probes were inserted into the rectum (CMA/150 Temperature Controller, CMA/Microdialysis AB, Stockholm, Sweden) and the left temporalis muscle (Thermocouple Probe, Omega Engineering, Stanford, Conn.), and separate heating lamps were used to maintain rectal temperature and temporalis muscle temperature at 37.0-37.5° C. The right femoral artery and vein were catheterized for continuous blood pressure monitoring and periodic blood sampling for arterial gases, pH, hematocrit, and plasma glucose (measurements taken 15 min before TBI and 15 min after TBI). Rectal temperature and body weight was monitored before trauma and periodically for 7 days after trauma. Mean arterial blood pressure (MABP) was measured via an indwelling femoral arterial catheter connected to a precalibrated Statham pressure transducer (model P23XL, Viggo-Spectramed Inc., Oxnard, Calif., USA) and was recorded continuously (model RS3400 polygraph, Gould, Inc., Valley View, Ohio, USA). Serial measurements were made of arterial blood gases and pH (model ABL 330, Radiometer America, Inc. Westlake, Ohio, USA) and plasma glucose (model 2300 Stnt; Yellow Springs Instrument Co., Inc., Yellow Springs, Ohio, USA). […]

[3] = tested on: severe epilepsy not responsive to other drugs; settings: patients with severe epilepsy not responsive to other drugs; cited from earlier work
flexor reflexes in cats = settings: in vivo; cited from earlier work
[4] = tested on: fluid-percussion brain injury; test: Fluid-percussion brain injury in rats: histopathological contusion areas; format: in vivo, rat; settings: for reduction of mean contusion area vs vehicle-treated rats: 4 mg/kg bolus + 4 mg/kg/h over 72 hr I.V.
From the text: as §1, §2, §3, §4, §5
Histopathological Analysis of Brain Trauma. Animals were allowed to survive for 7 days following fluid-percussion brain injury. […]

rats = test: Preliminary experiment with continuous infusion in rats (clinical signs); format: in vivo, rat; settings: doses of 8 and 10 mg/kg (5, 8 or 10 mg/kg tested)
Protocol: The dosage was chosen because talampanel has been studied in vivo in a gerbil model of global ischemia (Lodge et al., Neuropharmacology, 35: 1681-1688 (1996)). […] Therefore, the dose was reduced to about 5 mg/kg.

[5] = tested on: conscious male Sprague-Dawley rats; test: Cardiovascular effects in conscious rats; format: in vivo, rat; settings: single oral doses of 0.1, 0.3, 3 or 10 mg/kg; 2 hr
Protocol: Talampanel was examined for potential cardiovascular effects in conscious male Sprague-Dawley rats for 2 hr, following single oral doses of 0.1, 0.3, 3 or 10 mg/kg. The cardiovascular variables measured included systolic, diastolic and mean arterial pressure, arterial pulse pressure, and heart rate. […] Thus, taken together, these in vitro and in vivo studies makes AMPA antagonists and specifically talampanel attractive candidates for a number of therapeutic indications (data not shown).

[6] = tested on: global ischemia in gerbils; settings: 2.5-5 mg/kg, cited from earlier work
[7] = tested on: global cerebral ischemia in rats; settings: cited from earlier work
[8] = treatment begun at 3 hr after trauma

## CC(=O)N1N=C(c2ccc(N)cc2)c2cc3c(cc2C[C@H]1C)OCO3 [talampanel, (R)-7-acetyl-5-(4-aminophenyl)-8,9-dihydro-8-methyl-7H-1,3-dioxolo [4,5-h][2,3]benzodiazepine]
[1]; sham animals, vehicle or talampanel (30 min or 3 hr)
  numbers of normal neurons in CA1 and CA3 sectors of sham animals: identical in all groups
[1]; treatment 30 min after trauma
  survival of pyramidal neurons in the CA1 sector of hippocampus: increased survival
[1]; treatment at 30 min
  numbers of normal neurons in CA3 sector, statistical comparison with vehicle: did not differ statistically between groups
[1]; treatment begun at 3 hr
  normal pyramidal-neuron counts CA1 vs vehicle: almost identical in both groups
  normal pyramidal-neuron counts in the hippocampal CA3 sector vs vehicle: did not differ between groups
[1]; treatment starting at 30 min
  ischemic damage in all three subsectors of the hippocampal CA1 sector vs vehicle: significantly attenuated ischemic damage
Kindled seizures; 12.5 mg/kg
  chemically kindled seizures: suppressed chemically kindled seizures
Kindled seizures; 20 mg/kg
  electrically kindled seizures: suppressed
[2]
  seizures in status epilepticus: arrested seizures in a dose-related manner
Sprague-Dawley rats
  mortality: None of the animals died
  rectal and cranial temperatures, arterial blood gases, plasma glucose, arterial blood pressure, body weight: no significant differences between groups
[3]
  clinical outcome in patients: positive results
Flexor reflexes in cats
  flexor reflexes: inhibited flexor reflexes
[4]; bregma level −5.8 mm, treatment 30 min after trauma, 7 days after trauma
  reduction of mean contusion area vs vehicle-treated rats: 85%
[4]; bregma level −6.8 mm, treatment 30 min after trauma, 7 days after trauma
  reduction of mean contusion area vs vehicle-treated rats: 97%
[4]; treatment 30 min after trauma, 7 days after trauma
  reduction of total contusion area vs vehicle-treated rats: 70%
[4]; treatment 30 min after trauma, moderate fluid-percussion brain injury
  overall contusion volume: significant reduction
[4]; treatment 30 min after trauma, vs vehicle-treated rats
  contusion foci in brain sections (photomicrographs): smaller contusion foci, typically confined to the deeper cortical layers
[4]; treatment begun at 3 hr
  neuroprotective effect: lost
[4]; [8]
  contusion area at bregma levels vs vehicle-treated rats: reduced only at one bregma level (−6.8 mm)
  total contusion area, statistical comparison with vehicle-treated rats: did not differ statistically
rats
  clinical signs: clinical signs of ataxia
[5]
  systolic, diastolic and mean arterial pressure, arterial pulse pressure, heart rate: No changes were observed
[6]
  survival of hippocampal CA1 neurons / neuroprotection after global ischemia: significantly neuroprotective
[6]; listed as Talampanel
  survival of hippocampal CA1 neurons / neuroprotection after global ischemia: led to survival of hippocampal CA1 neurons

## CC1=NN=C(c2ccc(N)cc2)c2cc3c(cc2C1)OCO3 [GYKI 52466, 1-(4-aminophenyl)-4-methyl-7,8-methylene-dioxy-5H-2,3-benzodiazepine]
[7]; drug pretreatment but not posttreatment
  neuronal damage in the CA1 sector of the hippocampus: significantly attenuated
[7]; pretreatment or posttreatment
  striatal neuronal damage: not affected by either drug treatment
[7]; pretreatment vs posttreatment
  functional deficits (learned maze responses): pretreatment but not posttreatment reduced functional deficits
